Data published in US8791132B2, “Compounds and methods for treatment of hypertension” (Medivation Technologies, Inc., priority 2011, dated 2014).

Tests used:
[1] = biological target: T1, human recombinant adrenergic α2B receptor (Homo sapiens, UniProt P18089); test: Radioligand binding, adrenergic α2B ([3H]Rauwolscine); details: for inhibition at 0.1 µM: 0.1 μM compound, read-out: Percentage inhibition of ligand binding, Adrenergic α2B
T1 construct: expressed in transfected cells; host or cells: CHO-K1
T1 sequence (P18089 1-450): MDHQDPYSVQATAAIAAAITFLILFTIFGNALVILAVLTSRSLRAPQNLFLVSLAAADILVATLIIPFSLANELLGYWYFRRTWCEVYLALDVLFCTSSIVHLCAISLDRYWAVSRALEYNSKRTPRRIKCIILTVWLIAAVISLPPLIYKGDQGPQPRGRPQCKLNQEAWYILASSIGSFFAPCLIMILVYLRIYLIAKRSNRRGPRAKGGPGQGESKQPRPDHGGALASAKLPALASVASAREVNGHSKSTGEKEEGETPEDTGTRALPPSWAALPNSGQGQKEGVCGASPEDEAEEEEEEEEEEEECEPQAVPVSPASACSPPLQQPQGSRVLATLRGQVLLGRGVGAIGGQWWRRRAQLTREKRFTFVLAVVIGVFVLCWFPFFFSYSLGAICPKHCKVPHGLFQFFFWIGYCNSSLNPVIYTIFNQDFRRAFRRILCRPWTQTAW
How it was run: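 Readout: percent inhibition of specific [3H]Rauwolscine binding, measured by filtration and counting. Conditions: CHO-K1 cell-expressed receptor, 2.5 nM radioligand, 60 min, 25° C, Tris-HCl pH 7.4 buffer with MgCl2, EDTA, BSA. Non-specific binding: 10 μM Prazosin.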

[2] = biological target: T2, human recombinant adrenergic α2A receptor (Homo sapiens, UniProt P08913); test: Radioligand binding, adrenergic α2A ([3H]MK-912)
T2 construct: expressed in transfected cells; host or cells: insect Sf9 cells
T2 sequence (P08913 1-465): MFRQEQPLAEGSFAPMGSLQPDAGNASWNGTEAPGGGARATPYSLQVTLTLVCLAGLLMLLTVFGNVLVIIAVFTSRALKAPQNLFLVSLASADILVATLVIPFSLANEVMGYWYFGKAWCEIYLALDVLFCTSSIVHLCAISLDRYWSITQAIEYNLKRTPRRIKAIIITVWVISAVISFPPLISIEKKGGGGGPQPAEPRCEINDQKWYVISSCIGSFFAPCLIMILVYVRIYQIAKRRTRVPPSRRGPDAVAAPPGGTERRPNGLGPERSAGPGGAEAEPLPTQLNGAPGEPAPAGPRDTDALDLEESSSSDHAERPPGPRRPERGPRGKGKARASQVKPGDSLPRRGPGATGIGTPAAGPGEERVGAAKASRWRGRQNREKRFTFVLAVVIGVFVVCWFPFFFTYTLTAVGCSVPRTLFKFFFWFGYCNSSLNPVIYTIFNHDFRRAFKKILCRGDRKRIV
How it was run: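 Sf9-expressed receptor was incubated with compound for 60 min at 25 °C in modified Tris-HCl buffer, pH 7.4. Nonspecific binding was taken as that remaining with 10 μM WB-4101.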

[3] = biological target: T3, rat adrenergic α1B receptor (Rattus norvegicus, UniProt P15823); test: Radioligand binding, adrenergic α1B ([3H]Prazosin); details: 0.1 μM compound; read-out: Percentage inhibition of ligand binding, Adrenergic α1B
T3 construct: rat adrenergic α1B receptor obtained from Wistar Rat liver; from tissue; host or cells: Wistar rat liver
T3 sequence (P15823 1-515): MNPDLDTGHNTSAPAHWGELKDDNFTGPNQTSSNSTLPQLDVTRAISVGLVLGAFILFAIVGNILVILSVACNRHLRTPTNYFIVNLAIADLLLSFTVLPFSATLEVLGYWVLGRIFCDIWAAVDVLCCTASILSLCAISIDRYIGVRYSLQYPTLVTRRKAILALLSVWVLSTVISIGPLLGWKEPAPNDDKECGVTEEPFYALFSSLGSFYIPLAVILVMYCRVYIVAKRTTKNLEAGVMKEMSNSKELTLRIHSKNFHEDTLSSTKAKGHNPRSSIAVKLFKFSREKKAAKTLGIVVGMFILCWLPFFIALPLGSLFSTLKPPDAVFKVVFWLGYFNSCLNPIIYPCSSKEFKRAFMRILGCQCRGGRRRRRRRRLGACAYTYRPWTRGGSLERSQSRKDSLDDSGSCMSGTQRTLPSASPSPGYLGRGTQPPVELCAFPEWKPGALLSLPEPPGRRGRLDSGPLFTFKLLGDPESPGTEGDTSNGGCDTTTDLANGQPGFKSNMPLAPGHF
How it was run: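 Incubation ran 60 min at 25 °C in Tris-HCl buffer (50 mM, pH 7.4, 0.5 mM EDTA) with Wistar rat liver α1B receptor. 10 μM phentolamine set non-specific binding.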

[4] = biological target: T4, human recombinant adrenergic α1D receptor (Homo sapiens, UniProt P25100); test: Radioligand binding, adrenergic α1D ([3H]Prazosin); details: 0.1 μM compound; read-out: Percentage inhibition of ligand binding, Adrenergic α1D
T4 construct: expressed in transfected cells; host or cells: HEK-293
T4 sequence (P25100 1-572): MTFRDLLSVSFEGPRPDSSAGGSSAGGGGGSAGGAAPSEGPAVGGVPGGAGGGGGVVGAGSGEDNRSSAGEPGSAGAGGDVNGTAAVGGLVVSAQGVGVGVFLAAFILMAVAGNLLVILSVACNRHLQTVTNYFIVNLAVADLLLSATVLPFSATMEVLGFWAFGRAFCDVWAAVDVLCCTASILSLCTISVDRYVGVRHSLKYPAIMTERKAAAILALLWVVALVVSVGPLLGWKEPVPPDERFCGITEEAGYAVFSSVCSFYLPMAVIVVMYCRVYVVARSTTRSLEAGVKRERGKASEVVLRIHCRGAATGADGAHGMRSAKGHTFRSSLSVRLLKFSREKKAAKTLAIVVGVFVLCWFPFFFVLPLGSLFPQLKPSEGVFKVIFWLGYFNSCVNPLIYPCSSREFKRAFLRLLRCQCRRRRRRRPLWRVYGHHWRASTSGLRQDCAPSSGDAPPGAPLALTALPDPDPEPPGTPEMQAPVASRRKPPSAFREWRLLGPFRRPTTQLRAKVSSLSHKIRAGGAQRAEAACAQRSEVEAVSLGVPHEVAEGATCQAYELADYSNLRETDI
Description: Compounds were incubated with 0.6 nM [3H]Prazosin for 60 min at 25° C. Non-specific binding was estimated in the presence of 10 μM phentolamine. Receptor proteins were filtered and washed, the filters were then counted to determine [3H]Prazosin specifically bound. […] Biochemical assay results are presented as the percent inhibition of specific binding in Table B1.

[5] = 0.1 μM compound, read-out: Percentage inhibition of ligand binding, Adrenergic α2A

## Cc1ccc2c(c1)c1c(n2CCc2cccc3c2CCNC3)CCN(C)C1 [compound 317, 2,8-dimethyl-5-[2-(1,2,3,4-tetrahydro-isoquinolin-5-yl)-ethyl]-2,3,4,5-tetrahydro-1H-pyrido[4,3-b]indole]
[1]
  inhibition at 0.1 µM: 7%
[2]; [5]
  inhibition at 0.1 µM: 61%
[3]
  inhibition at 0.1 µM: 89%
[4]
  inhibition at 0.1 µM: 71%

## Cc1ccc2c(c1)c1c(n2CCc2cscc2C)CCN(C)C1 [compound 318, 2,8-dimethyl-5-[2-(4-methyl-thiophen-3-yl)-ethyl]-2,3,4,5-tetrahydro-1H-pyrido[4,3-b]indole]
[1]
  inhibition at 0.1 µM: 103%
[2]; [5]
  inhibition at 0.1 µM: 95%
[3]
  inhibition at 0.1 µM: 94%
[4]
  inhibition at 0.1 µM: 60%

## Cc1ccc(CCn2c3c(c4c(Cl)c(Cl)ccc42)CN(C)CC3)cn1 [compound 319]
[1]
  inhibition at 0.1 µM: 4%
[2]; [5]
  inhibition at 0.1 µM: 63%
[3]
  inhibition at 0.1 µM: 13%
[4]
  inhibition at 0.1 µM: 8%

## Cc1ccc2c(c1)c1c(n2CCc2cnc3ccccc3c2)CCN(C)C1 [compound 320]
[1]
  inhibition at 0.1 µM: 18%
[2]; [5]
  inhibition at 0.1 µM: 66%
[3]
  inhibition at 0.1 µM: 61%
[4]
  inhibition at 0.1 µM: 56%

## Cc1ccc2c(c1)c1c(n2C#Cc2cnc3ccccc3c2)CCN(C)C1 [compound 321, 2,8-dimethyl-5-quinolin-3-ylethynyl-2,3,4,5-tetrahydro-1H-pyrido[4,3-b]indole]
[1]
  inhibition at 0.1 µM: 90%
[2]; [5]
  inhibition at 0.1 µM: 59%
[3]
  inhibition at 0.1 µM: 94%
[4]
  inhibition at 0.1 µM: 66%

## Cc1ccc(CCn2c3c(c4cc(Cl)c(Cl)cc42)CN(C)CC3)cn1 [compound 322]
[1]
  inhibition at 0.1 µM: 49%
[2]; [5]
  inhibition at 0.1 µM: 58%
[3]
  inhibition at 0.1 µM: 59%
[4]
  inhibition at 0.1 µM: 22%

## Cc1ccc2c(c1)c1c(n2/C=C/c2cnc3ccccc3c2)CCN(C)C1 [compound 323]
[1]
  inhibition at 0.1 µM: 95%
[2]; [5]
  inhibition at 0.1 µM: 92%
[3]
  inhibition at 0.1 µM: 85%
[4]
  inhibition at 0.1 µM: 69%

## Cc1ccc2c(c1)c1c(n2CNc2ccccc2)CCN(C)C1 [compound 324, (2,8-dimethyl-1,2,3,4-tetrahydro-pyrido[4,3-b]indol-5-ylmethyl)-phenyl-amine]
[1]
  inhibition at 0.1 µM: 99%
[2]; [5]
  inhibition at 0.1 µM: 67%
[3]
  inhibition at 0.1 µM: 63%
[4]
  inhibition at 0.1 µM: 31%

## Cc1ccc(CCn2c3c(c4c(Cl)ccc(Cl)c42)CN(C)CC3)cn1 [compound 325]
[1]
  inhibition at 0.1 µM: -6%
[1]; read-out: Ki α2B
  Ki: 206 nM
[2]
  Ki: 9.88 nM
[2]; 0.03 μM compound, read-out: Percentage inhibition of ligand binding, Adrenergic α2A
  inhibition at 0.03 µM: 53%
[2]; 0.1 μM compound, 0.1 µM
  Percentage inhibition of ligand binding, Adrenergic α2A: 84%
[2]; [5]
  inhibition at 0.1 µM: 81%
[3]
  inhibition at 0.1 µM: -1%
[4]
  inhibition at 0.1 µM: 1%

## Cc1ccc2c(c1)c1c(n2CCc2nc(-c3ccc(Cl)cc3)cs2)CCN(C)C1 [compound 326]
[1]
  inhibition at 0.1 µM: 93%
[2]; [5]
  inhibition at 0.1 µM: 51%
[3]
  inhibition at 0.1 µM: 33%
[4]
  inhibition at 0.1 µM: 35%

## Cc1cc(-c2sccc2C)c2c(c1)c1c(n2CCc2ccc(C)nc2)CCN(C)C1 [compound 327]
[1]
  inhibition at 0.1 µM: -4%
[2]; [5]
  inhibition at 0.1 µM: 58%
[3]
  inhibition at 0.1 µM: -5%
[4]
  inhibition at 0.1 µM: 4%

## Cc1ccc(C#Cn2c3c(c4cc(C)ccc42)CN(C)CC3)nc1 [compound 328, 2,8-dimethyl-5-(5-methyl-pyridin-2-ylethynyl)-2,3,4,5-tetrahydro-1H-pyrido[4,3-b]indole]
[1]
  inhibition at 0.1 µM: 93%
[2]; [5]
  inhibition at 0.1 µM: 76%
[3]
  inhibition at 0.1 µM: 95%
[4]
  inhibition at 0.1 µM: 80%

## CCCc1ccc(/C(C)=C/n2c3c(c4cc(C)ccc42)CN(C)CC3)cn1 [compound 329]
[1]
  inhibition at 0.1 µM: 104%
[2]; [5]
  inhibition at 0.1 µM: 60%
[3]
  inhibition at 0.1 µM: 68%
[4]
  inhibition at 0.1 µM: 78%

## Cc1ccc2c(c1)c1c(n2C#Cc2ccc(S(N)(=O)=O)cc2)CCN(C)C1 [compound 330, 4-(2,8-dimethyl-1,2,3,4-tetrahydro-pyrido[4,3-b]indol-5-ylethynyl)-benzenesulfonamide]
[1]
  inhibition at 0.1 µM: 99%
[2]; [5]
  inhibition at 0.1 µM: 58%
[3]
  inhibition at 0.1 µM: 98%
[4]
  inhibition at 0.1 µM: 72%

## C/C(=C\n1c2c(c3cc(C)ccc31)CN(C)CC2)c1ccc(C(F)(F)F)nc1 [compound 331]
[1]
  inhibition at 0.1 µM: 99%
[2]; [5]
  inhibition at 0.1 µM: 53%
[3]
  inhibition at 0.1 µM: 53%
[4]
  inhibition at 0.1 µM: 70%

## Cc1ccc2c(c1)c1c(n2CCc2ccc3c(c2)CCCC3)CCN(C)C1 [compound 332, 2,8-dimethyl-5-[2-(5,6,7,8-tetrahydro-naphthalen-2-yl)-ethyl]-2,3,4,5-tetrahydro-1H-pyrido[4,3-b]indole]
[1]
  inhibition at 0.1 µM: 86%
[2]; [5]
  inhibition at 0.1 µM: 94%
[3]
  inhibition at 0.1 µM: 41%
[4]
  inhibition at 0.1 µM: 51%

## Cc1ccc2c(c1)c1c(n2C#Cc2ccc(S(N)(=O)=O)cc2)CN(C)CC1 [compound 333, 4-(2,6-dimethyl-1,2,3,4-tetrahydro-β-carbolin-9-ylethynyl)-benzenesulfonamide]
[1]
  inhibition at 0.1 µM: 88%
[2]; [5]
  inhibition at 0.1 µM: 52%
[3]
  inhibition at 0.1 µM: 65%
[4]
  inhibition at 0.1 µM: 16%

## Cc1ccc2c(c1)c1c(n2C#Cc2ccc(S(N)(=O)=O)s2)CCN(C)C1 [compound 334, 5-(2,8-dimethyl-1,2,3,4-tetrahydro-pyrido[4,3-b]indol-5-ylethynyl)-thiophene-2-sulfonic acid amide]
[1]
  inhibition at 0.1 µM: 82%
[2]; [5]
  inhibition at 0.1 µM: 55%
[3]
  inhibition at 0.1 µM: 91%
[4]
  inhibition at 0.1 µM: 72%

## C/C(=C\n1c2c(c3cc(C)cnc31)CN(C)CC2)c1ccc(F)cc1 [compound 335, 9-[2-(4-fluoro-phenyl)-propenyl]-3,6-dimethyl-6,7,8,9-tetrahydro-5H-1,6,9-triaza-fluorene]
[1]
  inhibition at 0.1 µM: 99%
[2]; [5]
  inhibition at 0.1 µM: 60%
[3]
  inhibition at 0.1 µM: 82%
[4]
  inhibition at 0.1 µM: 73%
